{"source": "patent US20240336658A1", "about": "“CYCLIC PEPTIDE AND PREPARATION METHOD AND USE THEREOF” (HANGZHOU HUIBO SCIENCE AND TECHNOLOGY CO., LTD, priority 2021, published 2024)", "key": {"[1]": {"tested_on": "full-thickness skin defect wound surfaces", "experiment": "Effects of cyclic peptide Hst1 on wound repair in mice (Example 10): healing rate, HE/Masson histology, CD31/VEGF immunohistochemistry", "assay_type": "in vivo, C57 BL/6 mice", "conditions": "day 10, Masson staining; 0.1 μM Click-Histatin1, 0.1 μM Sortase A-cyclic histatin1, 10 μM Histatin1", "experimental": "This example adopted the propargylglycine-Hst1 cyclic peptide (Click-Histatin1) provided in Example 1, a cyclized Hst1 (Sortase A-cyclic histatin1) prepared by the Sortase A enzymatic method provided in Example 4, and a linear peptide Hst1 (Histatin1) to conduct animal experiments to observe the effect of the propargylglycine-Hst1 on the healing rates of the wound surfaces of mice. The concentration of the linear peptide Hst1 was 10 μM, the concentration of the propargylglycine-Hst1 cyclic peptide was 0.1 μM, and the concentration of the cyclized Hst1 prepared by the Sortase A enzymatic method was each 0.1 μM. 12 healthy male special pathogen-free grade C57 BL/6 mice (purchased from Guangdong Experimental Animal Center) of 6-8 weeks old and weighing 22-28 g. They were intraperitoneally injected with 5 ml/kg of 1% pentobarbital sodium for anesthesia. After the mice had no corneal reflex, the hair on their backs was carefully removed and disinfected with alcohol. […] full-thickness skin defect wound surfaces were prepared on the back of each mouse by using a circular skin punch. The 12 mice were divided into a Control (blank) group with 3 mice, a 10 μM linear peptide Hst1 (Histatin1) group with 3 mice, a 0.1 μM propynylglycine-Hst1 cyclic peptide (Click-Histatin1) group with 3 mice, and a 0.1 μM cyclized Hst1 prepared by a Sortase A enzymatic method (Sortase A-cyclic histatin1) group with 3 mice, according to a random number table method. Each wound surface was added with 0.5 ml of four drugs respectively, and administration was conducted every day until the wound surfaces of the experimental groups healed. Photographs were taken on days 0, 3, 5, 7, and 10 after surgery, and wound tissues were sampled on day 10 for subsequent pathological staining. On days 0, 3, 5, 7, and 10 after injury, the general condition of wound healing of the mice was observed and photographed with a digital camera (see FIG. 4), and the wound healing rate was calculated (see FIG. 5). Wound healing rate=(wound area immediately after injury−unhealed wound area at each time point)[…]wound area immediately after injury×100%. The wound specimens were fixed in 4% paraformaldehyde for 48 hours, rinsed with tap water for 10 minutes, dehydrated with graded ethanol, permeabilized with xylene, and embedded in paraffin to prepare 4 μm thick sections. Some sections were taken for HE staining and Masson staining, and observed for the thickness of the granulation tissue, the length of the dermal gap, and the newly grown collagen of the wound surface under an inverted fluorescence microscope at 40×, 100×, 200×, and 400× respectively (see FIGS. 6 and 7). 5 sections were taken from each mouse, and 5 fields of view were selected for each section. Data analysis was performed using the software Image-pro Plus. […] It was added with a rabbit anti-mouse CD31 primary antibody (with a dilution ratio of 1:300) and a mouse anti-VEGF (with a dilution ratio of 1:100), incubated overnight at 4° C., and washed with PBS. […] It was subjected to DAB development, hematoxylin counterstaining. gradient ethanol dehydration, xylene permeabilization, and resin blocking. 5 sections were taken from each mouse, and 5 fields of view were selected for each section. The sections were observed under a 400× inverted fluorescence microscope, and analyzed for the number of CD31-positive blood vessels (see FIG. 8) and VEGF expression amounts (see FIG. 9, shown in brown) by using Image-pro Plus software. The measurement data were expressed by M±SD, and the data were analyzed by one-way analysis of variance (ANOVA) and an independent samples T-test with SPSS 20.0 software to detect whether the differences among the groups were statistically significant, and a Bonferroni test was used for pairwise comparison. *p<0.05. **p<0.01. ***p<0.001 meant the difference was statistically significant, and p>0.05 was not statistically significant."}, "fibroblasts (NIH/3T3)": {"tested_on": "fibroblasts (NIH/3T3)", "experiment": "Scratching experiment, Hst1 cyclic peptides (Examples 11 and 12)", "assay_type": "cell-based", "conditions": "dosage needed to achieve the same pharmaceutical effect in the scratch experiment", "experimental": "At the same time, fibroblasts (NIH/3T3; GNM 6; Chinese Academy of Sciences, China) were plated into a 6-well plate at a number of 2×10^6/well and cultured to a density of 70-80%. The cells were starved for 8-12 hours before the experiment. Mitomycin C (Sigma Aldrich, USA) was added into the culture medium to make its concentration in the culture medium be 15 μg/ml, and the culture medium was changed after 3 hours of treatment. Scratching was conducted with a 200 μl pipette tip perpendicular to the bottom of the well-plate with the same force, and the well-plate was rinsed with PBS twice after scratching. Each well was added with an appropriate amount of a DEME medium (10% FBS, 1% double antibody), and except for the blank control group, each well was added with 10 μM of the linear Hst1, 0.01 μM of the propynylglycine-Hst1 cyclic peptide, 0.1 μM of the propynylglycine-Hst1 cyclic peptide and 1 μM of the propynylglycine-Hst1 cyclic peptide as experimental groups. At 0 hour, the cells in each group were photographed by using a microscope (Olympus, Japan). […] The scratched area of each group was calculated by using imageJ (Rawak Software, Inc. Germany) software, and the scratch area at 0 hour was an initial scratch area. The scratch healing rate was calculated as follows: […]"}, "[2]": {"experiment": "Solubility of prepared cyclic peptide", "assay_type": "physicochemical"}}}
{"substance": "Sortase A-cyclic histatin1: cyclized Hst1 prepared by the literature Sortase A enzymatic method (Bolscher, FASEB Journal) (DSHEKRHHGYRRKFHEKHHSHREFPFYGDYGSNYLYDN; Histatin-1 cyclized via sortase A; UniProt P15515 20-57, looked up) [reference compound]", "values": [{"measurement": "expression amount of collagen at the wound surfaces", "setting": "[1]", "result": "significantly higher than that of the Control group"}, {"measurement": "Dosage of agents required for scratch test", "setting": "fibroblasts (NIH/3T3)", "result": 0.12, "unit": "µM"}, {"measurement": "solubility", "setting": "[2]", "result": "poor solubility"}]}
